Counter-ions that a name gives are not always drawn.

This is an account of results in patent US20220315574A1, “Beta-Arrestin-Modulating Compounds and Methods of Using Same” (Duke University, priority 2019, published 2022).

What all share (type): cell-based
Assay [1] deals with T1, βarr2 recruitment to agonist-activated β2V2R (Homo sapiens, UniProt P32121).
T1 construct: host or cells: U2OS
Put plainly: DiscoveRx PathHunter β-arrestin recruitment assay in U2OS cells. Conditions: series of compound concentrations, 30 min pretreatment, isoproterenol dose-response. As for the experimental part:
β-arrestin recruitment to the agonist-activated receptor (02V2R) was measured using the DiscoveRx PathHunter β-arrestin assay (Ahn, S. et al. Allosteric “beta-blocker” isolated from a DNA-encoded small molecule library. Proc Natl Acad Sci U SA 114, 1708-1713, doi:10.1073/pnas.1620645114 (2017)). […] Agonist-stimulated recruitment of βarr2 to the receptor results in the formation of functionally active β-gal enzyme. Addition of substrate generates a chemiluminescence signal directly correlated to the extent of recruitment. U2OS cells co-expressing β2V2R and βarr2 were plated in 96-well clear-bottomed plates at a density of 25,000 cells per well (80 μL per well), 24 hours prior to compound treatment. On the day of experiment, cells were first treated with compound or vehicle for 30 min, followed by agonist (Iso) stimulation for 60 min at 37° C. Cells were then treated with PathHunter™ detection reagents for 90 min at 37° C., and luminescence signals were measured using a CLARIOstar microplate reader (BMG Labtech Inc., Cary, N.C.).

In assay [2] the test system is β2V2R-βarr internalization. The assay is described as follows: DiscoveRx PathHunter activated receptor endocytosis assay in U2OS cells. The settings on record: series of compound concentrations, 30 min pretreatment, isoproterenol dose-response. As for the experimental part:
β-arrestin-mediated activated receptor internalization was measure using the DiscoveRx PathHunter activated receptor endocytosis assay according to the manufacturer's protocols (DiscoverRx, Fremont, Calif.). Briefly, an Enzyme Acceptor (EA)-tagged βarr and a ProLink tag localized to endosomes are stably expressed in U2OS cells. Untagged β2V2R is transiently expressed (4 ug of DNA). The next day, cells (25,000 cells per well) were then seeded in white 96-well clear-bottomed assay plates and incubated for 24 h before experiments. On the day of experiment, cells were first treated with compound or vehicle for 30 min, followed by a series concentrations of agonist (Iso) stimulation for 60 min at 37° C. Receptor internalization was detected as luminescence resulting from the complementation of β-galactosidase fragments (Enzyme Acceptor and ProLink) within endosomes. Luminescence signals were measured on a CLARIOstar microplate reader using the PathHunter Detection kit (DiscoveRx).

A further assay relates to β2AR. The assay is described as follows: FRET-based cAMP accumulation (ICUE2 HEK293 cells), receptor desensitization. Conditions: ICUE cells pretreated with inhibitor. The procedure: The Epac2 (ICUE2) sensor contains a CFP and YFP FRET pair. HEK293 cells stably expressing the ICUE2 cells were plated in poly-D-lysine-coated black 96 well plates (Corning) at a cell density of 50,000 cells per well. 16 hours after plating, cells were PBS-washed, then incubated in HEPES-buffered saline solution (150 mM NaCl, 5 mM KCl, 1 mM MgCl2, 2 mM CaCl2, 10 mM glucose, and 10 mM HEPES, pH 7.4) for one hour.
On the technique in general: Cyclic AMP is a second messenger, typically raised through Gs and lowered through Gi signalling.

In another assay the test system is human AT1aR. Put plainly: Intracellular calcium measurement, receptor desensitization. The settings on record: AngII-induced calcium signal. As for the experimental part:
Intracellular [Ca^2+] release was measured using FLIPR Calcium 6 with the FlexStation 3 microplate reader according to the manufacturer's instructions (Molecular Devices, LLC). Briefly, HEK293 cells stably expressing human AT1aR were seeded in poly-D-lysine-coated black 96-well assay plates (35,000 cells per well) and incubated for 24 hours. On the day of experiment, cell plates were loaded with the appropriate calcium kit reagents and then treated with βarr small molecule modulators or vehicle for 30 min. Basal fluorescence (FO) was measured, agonist was applied while fluorescence (F) intensity was monitored in real time.

Another assay has as its system ERK1/2. Put plainly: Live cell ERK1/2 activation assay (HEK293 cells stably expressing β2AR). The settings on record: for βarr1/2-dependent ERK activation through β2-adrenergic receptor: carvedilol stimulation after compound pretreatment. As for the experimental part: To assess the effect(s) of βarr small-molecule modulators on receptor-stimulated β-arr dependent ERK1/2 activation, HEK293 cells stably expressing β2AR plates were starved for 6 hours in serum-free medium prior to stimulation (Wisler, J. W. et al. A unique mechanism of beta-blocker action: carvedilol stimulates beta-arrestin signaling. Proc Natl Acad Sci USA 104, 16657-16662, doi:10.1073/pnas.0707936104 (2007); Wang, J. et al. Galphai is required for carvedilol-induced beta1 adrenergic receptor beta-arrestin biased signaling. Nat Commun 8, 1706, doi:10.1038/s41467-017-01855-z (2017)). Cells were pretreated with βarr small-molecule modulators or vehicle, then incubated for 30 min at 37° C. After stimulation with appropriate receptor ligand (carvedilol or isoproterenol) for indicated time points, reactions were terminated by the addition of Laemmli sample buffer. The cell lysates were sonicated for 15 sec (2×) and clarified by centrifugation 14,000×g (4° C., 15 min). Proteins were resolved on an SDS-PAGE gel, transferred to nitrocellulose membranes, and immunoblotted using rabbit polyclonal anti-phospho-p44/42 MAPK (ERK1/2) antibody (1:2000; Cell Signaling), anti-MAPK1/2 (ERK1/2) antibody (1:10,000; Millipore-Sigma), anti-β-arrestin1 antibody (A1CT; 1:3000) or anti-β-arrestin2 antibody (A1CT; 1:3000, Lefkowitz lab, Duke University). Protein bands on the membrane were detected with SuperSignal West Pico enhanced chemiluminescent substrate (Thermo Fisher) and captured using a ChemiDoc-XRS charge-coupled device camera system (Bio-Rad Laboratories). Bands were quantified by densitometry using Image Lab (Bio-Rad, Hercules, Calif.) and GraphPad Prism software was used for data analyses.
For experiments involving siRNA transfection and knockdown βarrs, after stimulation cells were lysed in ice-cold 1% NP-40 lysis buffer [20 mM tris-HCl (pH 7.4), 137 mM NaCl, 20% glycerol, 1% NP-40, 2 mM sodium orthovanadate, 1 mM phenylmethylsulfonyl fluoride, 10 mM sodium fluoride, aprotinin (10 μg/ml), leupeptin (5 μg/ml), and phosphatase inhibitors (Phos-STOP; Roche)], rotated for 45 min, and cleared of insoluble debris by centrifugation at 14,000×g (4° C., 15 min). After which the supernatant was collected, protein concentration determined, and equal amounts of cell lysate were mixed with 2×Laemmli sample buffer. Samples were analyzed afterwards essentially as described above.

T1 sequence (P32121 whole entry): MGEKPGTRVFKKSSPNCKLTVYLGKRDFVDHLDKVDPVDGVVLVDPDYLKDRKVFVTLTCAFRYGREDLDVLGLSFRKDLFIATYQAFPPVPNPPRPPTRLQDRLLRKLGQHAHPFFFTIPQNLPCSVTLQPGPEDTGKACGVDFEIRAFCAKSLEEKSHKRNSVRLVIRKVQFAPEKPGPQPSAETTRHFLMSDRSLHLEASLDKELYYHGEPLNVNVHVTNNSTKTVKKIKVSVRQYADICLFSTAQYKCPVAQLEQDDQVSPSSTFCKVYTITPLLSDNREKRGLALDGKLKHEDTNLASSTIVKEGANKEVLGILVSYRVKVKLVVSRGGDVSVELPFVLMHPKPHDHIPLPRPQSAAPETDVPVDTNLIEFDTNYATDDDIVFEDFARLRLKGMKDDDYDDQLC

With `C=C1C(=O)OC2CC3(C)OC3CC/C(C)=C\C(OC(C)=O)C12` (stereo not drawn) [Cmpd-64, [(8Z)-3,8-dimethyl-12-methylidene-13-oxo-4,14-dioxatricyclo[9.3.0.03,5]tetradec-8-en-10-yl] acetate], the “maximal agonist induced βarr recruitment response” value in assay [1] was “significantly diminished”. Besides, the “maximal agonist induced receptor-βarr internalization response” value in assay [2] was “significantly diminished”. For the same compound, the “isoproterenol-stimulated cAMP accumulation vs untreated control cells” value in the assay on β2AR was “increased cAMP accumulation”. The “desensitization of AT1aR” value with human AT1aR was “inhibited”. The “βarr1/2-dependent ERK activation through β2-adrenergic receptor” value with ERK1/2 is given as “attenuate”.
`C=C1C(=O)C23[C@H](O)C1CC[C@H]2[C@]12COC3(O)[C@@H](O)[C@@H]1C(C)(C)CC[C@@H]2O` [Cmpd-5, (1R,2S,10S,11R,15S,18R)-9,10,15,18-tetrahydroxy-12,12-dimethyl-6-methylidene-17-oxapentacyclo[7.6.2.15,8.01,11.02,8]octadecan-7-one]: in assay [1], the “maximal agonist induced βarr recruitment response” value is “significantly diminished”. Further, the “maximal agonist induced receptor-βarr internalization response” value in assay [2] was “significantly diminished”. The “isoproterenol-stimulated cAMP accumulation vs untreated control cells” value in the assay on β2AR is “increased cAMP accumulation”. For the same compound, the “desensitization of AT1aR” value in the assay on human AT1aR is given as “inhibited”. Moreover, the “βarr1/2-dependent ERK activation through β2-adrenergic receptor” value with ERK1/2 is reported as “attenuate”.
`CN(C)c1n/c(=N/Cc2ccco2)ss1` [Cmpd-30, 5-(furan-2-ylmethylimino)-N,N-dimethyl-1,2,4-dithiazol-3-amine;hydrobromide]: the “maximal agonist induced βarr recruitment response” value in assay [1] is “significantly diminished”. Besides, the “maximal agonist induced receptor-βarr internalization response” value in assay [2] is reported as “significantly diminished”. Further, in the assay on β2AR, the “isoproterenol-stimulated cAMP accumulation vs untreated control cells” value is “increased cAMP accumulation”. Further, the “desensitization of AT1aR” value in the assay on human AT1aR is “inhibited”. In the assay with ERK1/2 (Homo sapiens, HEK293, βarr-dependent but receptor-independent), the concentration giving a half-maximal response (EC50) stood at 500 nM. The “basal phosphorylation of ERK1/2” value in the assay with ERK1/2 (compound alone, absent of agonist) was “increased”. Moreover, the “time of peak ERK activation signal” value in the assay on ERK1/2 (compound alone, decline observed at 30 minutes) lay within 15 to 20 min. Besides, in the assay with ERK1/2 (βarr1/2 siRNA vs control siRNA), the “compound-induced ERK1/2 phosphorylation after knockdown of βarr1/2” value was “markedly impaired”.

A word on the EC50: it is the concentration giving half of the maximal effect. Read a low EC50 as greater potency.
